We go through three compounds from publication PMC6199744, “Development of Chemical Proteomics for the Folateome and Analysis of the Kinetoplastid Folateome” (ACS Infectious Diseases, 2018).

Format in all cases: binding
Test [1] concerns the target T1, HeLa cell extract proteins (Homo sapiens, UniProt O00743).
T1 construct: endogenous in cells; host or cells: HeLa cell extract
T1 sequence (O00743 1-305): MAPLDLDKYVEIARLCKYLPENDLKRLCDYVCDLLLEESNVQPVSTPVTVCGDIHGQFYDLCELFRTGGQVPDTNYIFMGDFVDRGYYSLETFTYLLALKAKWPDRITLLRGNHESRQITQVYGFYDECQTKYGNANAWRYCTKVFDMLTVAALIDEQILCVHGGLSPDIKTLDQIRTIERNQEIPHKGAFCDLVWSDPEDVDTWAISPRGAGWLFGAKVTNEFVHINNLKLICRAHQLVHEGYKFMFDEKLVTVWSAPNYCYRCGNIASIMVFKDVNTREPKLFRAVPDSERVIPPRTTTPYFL
The note with it: HeLa; protein PPP6C.

The target of test [2] is T2, HeLa cell extract proteins (Homo sapiens, UniProt P49588).
T2 construct: endogenous in cells; host or cells: HeLa cell extract
T2 sequence (P49588 1-968): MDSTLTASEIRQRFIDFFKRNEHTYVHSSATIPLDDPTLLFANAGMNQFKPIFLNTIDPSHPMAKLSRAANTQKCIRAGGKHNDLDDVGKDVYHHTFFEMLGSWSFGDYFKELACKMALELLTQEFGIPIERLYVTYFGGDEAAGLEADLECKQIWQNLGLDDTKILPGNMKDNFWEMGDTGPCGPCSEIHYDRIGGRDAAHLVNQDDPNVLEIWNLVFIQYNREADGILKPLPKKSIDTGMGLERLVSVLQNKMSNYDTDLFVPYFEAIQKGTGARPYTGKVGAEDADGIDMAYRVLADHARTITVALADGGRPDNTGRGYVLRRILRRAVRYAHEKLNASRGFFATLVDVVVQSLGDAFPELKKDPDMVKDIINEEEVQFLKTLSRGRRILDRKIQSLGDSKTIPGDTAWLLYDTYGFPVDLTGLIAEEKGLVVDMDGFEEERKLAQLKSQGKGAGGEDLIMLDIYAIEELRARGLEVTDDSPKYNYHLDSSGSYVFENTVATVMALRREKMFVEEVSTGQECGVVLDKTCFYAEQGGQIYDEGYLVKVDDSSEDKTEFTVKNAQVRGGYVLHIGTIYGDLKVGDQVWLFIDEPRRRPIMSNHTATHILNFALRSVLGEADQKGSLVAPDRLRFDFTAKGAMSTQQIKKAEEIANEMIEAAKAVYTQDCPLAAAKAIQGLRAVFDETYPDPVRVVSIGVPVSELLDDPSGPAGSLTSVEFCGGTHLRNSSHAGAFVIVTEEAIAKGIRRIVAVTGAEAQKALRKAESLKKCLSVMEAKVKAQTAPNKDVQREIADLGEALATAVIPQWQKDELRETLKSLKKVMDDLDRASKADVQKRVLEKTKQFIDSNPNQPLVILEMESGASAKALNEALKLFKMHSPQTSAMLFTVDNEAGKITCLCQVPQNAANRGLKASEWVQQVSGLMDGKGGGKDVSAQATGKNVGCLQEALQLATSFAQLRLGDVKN

For test [3], the target named is T3, HeLa cell extract proteins (Homo sapiens, UniProt P55060).
T3 construct: endogenous in cells; host or cells: HeLa cell extract
T3 sequence (P55060 1-971): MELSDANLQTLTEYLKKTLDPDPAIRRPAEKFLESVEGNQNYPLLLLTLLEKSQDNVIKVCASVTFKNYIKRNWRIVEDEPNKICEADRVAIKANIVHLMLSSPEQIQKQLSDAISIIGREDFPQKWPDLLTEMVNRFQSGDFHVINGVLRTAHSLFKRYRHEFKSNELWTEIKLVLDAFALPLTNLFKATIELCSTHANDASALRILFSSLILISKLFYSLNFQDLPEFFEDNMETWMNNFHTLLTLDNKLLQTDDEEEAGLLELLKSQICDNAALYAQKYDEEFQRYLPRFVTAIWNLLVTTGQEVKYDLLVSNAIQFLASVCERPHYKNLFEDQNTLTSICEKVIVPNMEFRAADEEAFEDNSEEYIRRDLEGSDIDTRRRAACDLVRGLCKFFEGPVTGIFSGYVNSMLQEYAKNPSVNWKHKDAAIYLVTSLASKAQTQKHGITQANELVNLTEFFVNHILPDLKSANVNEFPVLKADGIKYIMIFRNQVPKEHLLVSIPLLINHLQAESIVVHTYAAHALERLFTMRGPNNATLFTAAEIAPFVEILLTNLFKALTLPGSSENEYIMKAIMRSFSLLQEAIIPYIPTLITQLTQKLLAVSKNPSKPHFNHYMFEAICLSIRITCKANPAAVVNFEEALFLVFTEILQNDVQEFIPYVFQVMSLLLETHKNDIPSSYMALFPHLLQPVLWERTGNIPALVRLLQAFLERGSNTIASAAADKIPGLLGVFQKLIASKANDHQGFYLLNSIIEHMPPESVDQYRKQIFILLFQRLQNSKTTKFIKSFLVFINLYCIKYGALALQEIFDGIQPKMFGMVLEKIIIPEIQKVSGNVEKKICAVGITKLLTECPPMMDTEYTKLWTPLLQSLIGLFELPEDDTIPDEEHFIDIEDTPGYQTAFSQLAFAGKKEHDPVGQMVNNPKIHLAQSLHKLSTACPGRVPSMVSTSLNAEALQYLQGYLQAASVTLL
Particulars: protein CSE1L; HeLa.

The target of test [4] is T4, HeLa cell extract proteins (Homo sapiens, UniProt Q9NUI1).
T4 construct: endogenous in cells; host or cells: HeLa cell extract
T4 sequence (Q9NUI1 1-292): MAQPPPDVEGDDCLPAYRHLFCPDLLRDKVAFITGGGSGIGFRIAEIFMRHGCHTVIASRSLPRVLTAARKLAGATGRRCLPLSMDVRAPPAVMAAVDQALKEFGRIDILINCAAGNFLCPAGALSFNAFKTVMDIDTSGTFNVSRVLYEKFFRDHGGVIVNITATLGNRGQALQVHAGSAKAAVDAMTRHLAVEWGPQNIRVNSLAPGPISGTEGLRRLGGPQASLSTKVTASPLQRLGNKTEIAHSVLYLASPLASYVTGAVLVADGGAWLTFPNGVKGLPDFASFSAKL
The note with it: HeLa; protein DECR2.

The subject of test [5] is HeLa cell extract proteins.
Setting [6] is: HeLa; protein A8MV93_HUMAN (SIMILAR TO CYTOCHROME C.).
The mark [7] stands for this setting: HeLa; protein CTNNA1 (ISOFORM 2 OF CATENIN ALPHA-1.).
Setting [8] is: HeLa; protein EIF5A (ISOFORM 2 OF EUKARYOTIC TRANSLATION INITIATION FACTOR 5A-1.).
Where [9] appears, read: HeLa; protein NME1-NME2 (NUCLEOSIDE DIPHOSPHATE KINASE.).

SMILES strings stand for the structures. Read-outs that look alike come from different tables or passages of the source.

With `CCCCCCOc1ccc(Cc2cnc(N)nc2N)cc1` [compound 1], the “fold changes relative to vehicle control” value turned out to be 1.01 in test [1]; 1.15 in test [2] (protein AARS; HeLa); 1.02 in test [3]; 1 in test [4]; 1.4 fold in test [5] (setting [6]); 1.26 fold in test [5] (setting [7]). Also, the “fold changes relative to vehicle control” value in test [5] (setting [8]) is recorded as 1.5 fold; in test [5] (HeLa; protein LOC646960), 1.15; in test [5] (HeLa; protein LOC654188 (SIMILAR TO PEPT[…] A-LIKE.)) it was 1.34 fold; in test [5] (setting [9]), 1.36 fold; in test [5] (protein EIF1AP1; HeLa), 1.3; in test [5] (protein LOC442497; HeLa), 1.12. Further, the “fold changes relative to vehicle control” value in test [5] (protein RPLP0-LIKE; HeLa) turned out to be 0.94.

With `NCCCNc1ccc(C(=O)NC(CCC(=O)O)C(=O)O)cc1` (stereo not shown) [compound 7], the “fold changes relative to vehicle control” value was found to be 1.04 in test [1]; 1 in test [2] (HeLa; protein AARS); 1.04 in test [3]; 0.93 in test [4]; 0.98 in test [5] (HeLa; captured protein EIF1AP1); 1.05 in test [5] (HeLa; captured protein LOC442497). The “fold changes relative to vehicle control” value in test [5] (HeLa; protein ABCB7 (ISOFORM 2 OF ATP-BINDING CASSETTE SUB-FAMILY B MEMBER 7, MIT[…])) is reported as 1.23; in test [5] (HeLa; protein ASAH1 (N-ACYLSPHINGOSINE AMIDOHYDROLASE (ACID CERAMIDASE) 1 ISOFORM B)), 1.18; in test [5] (HeLa; protein GTPBP3 (ISOFORM 2 OF TRNA MODIFICATION GTPASE GTPBP3, MITOCHONDRIAL PRECURSOR)) it was 1; in test [5] (HeLa; protein LOC654188), 0.99; in test [5] (HeLa; protein MYL6 (ISOFORM SMOOTH MUSCLE OF MYOSIN LIGHT POLYPEPTIDE 6)), 1.14; in test [5] (HeLa; protein NME1-NME2) it was 0.91. Moreover, the “fold changes relative to vehicle control” value came out at 1.02 in test [5] (HeLa; protein PSMA1 (ISOFORM LONG OF […] ALPHA TYPE 1)); 0.98 in test [5] (HeLa; protein PSME1 (PROTEASOME ACTIVATOR SUBUNIT 1 ISOFORM 2)); 0.93 in test [5] (HeLa; protein RPLP0-LIKE); 0.9 in test [5] (protein HIST2H2BA; HeLa); 1.02 in test [5] (protein LOC646960; HeLa).

As for `CCCCCCOc1cccc(Cc2cnc(N)nc2N)c1` [compound 2], the “fold changes relative to vehicle control” value in test [1] is on record as 0.99; in test [2] (protein AARS; HeLa) it was 1.96; in test [3], 1.52; in test [4] it was 1.05; in test [5] (setting [6]), 2.46 fold; in test [5] (setting [7]) it was 2.1 fold. Also, the “fold changes relative to vehicle control” value is 2.05 fold in test [5] (setting [8]); 1.08 in test [5] (HeLa; protein LOC646960); 2.15 fold in test [5] (HeLa; protein LOC654188 (SIMILAR TO PEPTIDYLPROLYL ISOMERASE A-LIKE.)); 2.13 fold in test [5] (setting [9]); 1.77 in test [5] (protein EIF1AP1; HeLa); 1.38 in test [5] (protein LOC442497; HeLa). Moreover, the “fold changes relative to vehicle control” value in test [5] (protein RPLP0-LIKE; HeLa) stood at 1.23.
